The assay concerns Vibrio fischeri.

Where a SMILES comes first, the peptide text is derived from it. [ ]: non-standard residue; d: D form. Gly(Nα-4-Cl-benzyl) = O=C(O)CNCc1ccc(Cl)cc1; Gly(N-(CH2)3OMe) = COCCCNCC(=O)O; N(iPr)Gly = CC(C)NCC(=O)O

As for `COCCCN(CC(=O)NCC(=O)O)C(=O)CNC(=O)CN(C(=O)CNC(=O)CN(Cc1ccc(Cl)cc1)C(=O)CN)C(C)C` (H-G[Gly(Nα-4-Cl-benzyl)]G[N(iPr)Gly]G[Gly(N-(CH2)3OMe)]G-OH), the IC50 (in general, the concentration at which inhibition is half-maximal) was about 10 µM.

Values taken from patent publication US20100222548A1, “METHOD FOR PRODUCING CONDENSATION PRODUCTS FROM N-SUBSTITUTED GLYCINE DERIVATIVES(PEPTOIDS) BY SEQUENTIAL UGI-MULTICOMPONENT REACTIONS” (priority 2006, published 2010).
